Laboratory results taken from EP0587396A1, “Use of hypoxoside derivatives for the treatment of viral infections” (VIROSTAT (NA) NV, priority 1992, dated 1994).
Where two headings read alike, the source gives them in different places.

Tests used:
[1] = tested on: human immunodeficiency virus type 1 (HIV-1); test: Inhibition of HIV-1 proliferation in PHA-activated human PBL's (p24 core protein by Sandwich ELISA, HIV RNA by labelled DNA probe hybridization); type: cell-based; settings: for inhibition of p24 core protein production: 10 ng/mℓ; for inhibition at 50 µg/mL: read-out: % inhibition:HIV-RNA, 50 μg/mℓ; for inhibition at 100 µg/mL: read-out: % inhibition:HIV-RNA, 100 μg/mℓ
Protocol: Compounds I - XXVIII were subjected to in vitro testing for inhibition of human immunodeficiency virus type 1 (HIV-1) proliferation as follows:
Human peripheral blood lymphocytes (PBL's) obtained by density gradient centrifugation of blood from healthy volunteers at a blood bank were pooled and used for the propagation of HIV-1 in vitro.
The PBL's were polyclonally activated with phytohaemagglutinin (PHA) and subjected to quality controls whereby their viability was tested with Trypan blue exclusion and the expression of activation antigens, CD4⁺ and CD25⁺ was measured by immunofluorescence. Prior to adding the test substance, the activated PBL's were exposed to a standardized titre of HIV-1 virus and after incubation for 60 minutes the cells were washed twice and plated into microtitre plates at a concentration of 2X10⁶ cells/well. The medium contained interleukin-2 and in control wells the virus produced between 50 and 100 ng/mℓ of p24 core protein on day 4. The test substance was added to these cultures either in water or dimethyl sulphoxide (DMSO) depending on solubility characteristics. The final DMSO concentration, when used, was always 1% v/v.
HIV replication was measured as the production of p24 core protein and the production of HIV RNA on days 2, 3 and 4, or on days 3, 4, 5 and 6. Core protein p24 was measured using 'Sandwich ELISA' technology using inter alia a monoclonal antibody against p24 core protein. The HIV RNA was measured using a specific labelled DNA probe against HIV RNA and the process of hybridization.
Results were expressed as percent inhibition of HIV-1 p24 core protein production or RNA production on days 3, 4 or 6.
In each test, cells were also exposed to HIV-1 and 3'-azido-3'-deoxythymidine (also known as Zidovudine or AZT) at 100, 10, 1 and 0.1 ng/mℓ. This was a positive control and compounds tested were compared to the inhibitory effect of 10 ng/mℓ AZT.
In all of the following Tables, percentage inhibition refers to inhibition of p24 core protein production and HIV RNA production relative to infected controls. Percentage AZT inhibition refers to inhibition caused by 10 ng/mℓ AZT at the end of the experiment, i.e. after 4 or 6 days.

CD4⁺ cells = settings: standard doses (250 mg/4 hours) and reduced doses (100 mg/4 hours) for 30 months; Fisch et al; cited from earlier work
[2] = Toxicity: lymphocyte proliferation assay with MTT in the HIV-1 infected PBL cultures; type: cell-based; settings: human, pbls, Table 8 (3 days incubation), read-out: Proliferation as a percentage of control value
[3] = tested on: primary foetal human fibroblasts; test: Signs of toxicity in the fibroblast cultures of the CMV test; type: cell-based; settings: 200 µg/mℓ
Protocol: (§1) Compound XVII was added to primary foetal human fibroblasts in tissue culture, to yield final concentrations respectively of 50, 100 and 200 µg/mℓ. The cultures were then respectively inoculated with a high standard viral dose, with one tenth (1/10) of said standard dose and with one fiftieth (1/50) of said standard dose of cytomegalo-virus (CMV) and incubated for four days.

[4] = tested on: respiratory syncytial virus (RSV); test: Inhibition of RSV syncytium formation in Hep-2 cells; type: cell-based
Protocol: Compound XVIII was added to Hep-2 cells growing as slope cultures in plastics tubes to give final concentrations respectively of 50, 100 and 200 µg/mℓ. The cultures were then respectively inoculated with a high standard viral dose, one tenth (1/10) of said standard dose, and one hundredth (1/100) of said standard dose of respiratory syncytial virus (RSV). After four days of incubation at 33°C the cells were visually inspected using an inverted phase contrast microscope and scored for the extent of syncytium formation, i.e. single cells containing three or more nuclei, as follows: a = 0 - 25%, b = 25 - 50%, c = 50 - 75% and d = 75 - 100% of cells having three or more nuclei.

[5] = Toxicity: lymphocyte proliferation assay with MTT in the HIV-1 infected PBL cultures; type: cell-based; settings: human, pbls, Table 8 continued (6 days incubation), read-out: Proliferation as a percentage of control value
Protocol: Possible toxic effects of the test substances were measured by viability testing using Trypan blue or a proliferation assay using3-(4,5-dimethylthiazol-2-yl)-2,5-diphenyl-2H-tetrazolium bromide (MTT) on day 4 or day 6 after initiation of the experiment (Borenfreund et al: Toxicol. In Vitro, 1988, 2, 1-6).
The toxicity of the drug was expressed as a percentage inhibition of lymphocyte proliferation as measured with MTT and compared with controls receiving the virus but no drug.

cytomegalo-virus (CMV) = test: Cytopathic effect of CMV in primary foetal human fibroblasts; type: cell-based
Protocol: as §1
The cytopathic effect of CMV was determined by microscopic visual inspection of the cell cultures, in terms of the extent of gross swelling of the cells, where: a = 0 - 25%, b = 25 - 50%, c = 50 - 75% and d = 75 - 100% of the cells affected by gross swelling.

[6] = Human immunodeficiency virus 1, 72 h, 3 days incubation
[7] = Human immunodeficiency virus 1, 144 h, 6 days incubation

Cc1cn([C@H]2C[C@H](N=[N+]=[N-])[C@@H](CO)O2)c(=O)[nH]c1=O [AZT, 3'-azido-3'-deoxythymidine, reference compound]
inhibition of p24 core protein production ([1]; positive control of Table 2 (6 days, standard titre)): 20% | inhibition of p24 core protein production ([1]; positive control of Table 4 (after 3 days)): 50% | inhibition of p24 core protein production ([1]; positive control of Table 5 (after 6 days)): 50% | inhibition of p24 core protein production ([1]; positive control of Table 6 (6 days, standard viral titre)): 20% | inhibition of p24 core protein production ([1]; positive control of Table 8 (3 days incubation)): 50% | inhibition of p24 core protein production ([1]; positive control of Table 12 (3 days incubation)): 50% | inhibition at 0.01 µg/mL ([1]; Human immunodeficiency virus 1, 72 h, read-out: inhibition of HIV-RNA production, 10 ng/mℓ, positive control of Table 4 (after 3 days)): 46% | inhibition at 0.01 µg/mL ([1]; Human immunodeficiency virus 1, 72 h, read-out: inhibition of HIV-RNA production, 10 ng/mℓ, positive control of Table 8 (3 days incubation)): 46% | inhibition at 0.01 µg/mL ([1]; Human immunodeficiency virus 1, 72 h, read-out: inhibition of HIV-RNA production, 10 ng/mℓ, positive control of Table 12 (3 days incubation)): 46% | inhibition at 0.01 µg/mL ([1]; Human immunodeficiency virus 1, 96 h, read-out: inhibition of HIV RNA production, 10 ng/mℓ, positive control of the crude extract test (4 days)): 96% | inhibition at 0.01 µg/mL ([1]; Human immunodeficiency virus 1, 96 h, read-out: inhibition of HIV-RNA production, 10 ng/mℓ, day 4, positive control of Table 13): 100% | inhibition at 0.01 µg/mL ([1]; Human immunodeficiency virus 1, 96 h, read-out: inhibition of HIV-RNA production, 10 ng/mℓ, positive control of Table 11 (4 days)): 97% | inhibition at 0.01 µg/mL ([1]; Human immunodeficiency virus 1, 144 h, read-out: inhibition of HIV-RNA production, 10 ng/mℓ, day 6, positive control of Table 13): 100% | inhibition at 0.01 µg/mL ([1]; Human immunodeficiency virus 1, 144 h, read-out: inhibition of HIV-RNA production, 10 ng/mℓ, positive control of Table 2 (6 days, standard titre)): 68% | inhibition at 0.01 µg/mL ([1]; Human immunodeficiency virus 1, 144 h, read-out: inhibition of HIV-RNA production, 10 ng/mℓ, positive control of Table 5 (after 6 days)): 46% | inhibition at 0.01 µg/mL ([1]; Human immunodeficiency virus 1, 144 h, read-out: inhibition of HIV-RNA production, 10 ng/mℓ, positive control of Table 6 (6 days, standard viral titre)): 68% | inhibition at 0.01 µg/mL ([1]; Human immunodeficiency virus 1, 144 h, read-out: inhibition of HIV-RNA production, 10 ng/mℓ, positive control of Table 8 continued (6 days incubation)): 92% | inhibition at 0.01 µg/mL ([1]; Human immunodeficiency virus 1, 144 h, read-out: inhibition of HIV-RNA production, 10 ng/mℓ, positive control of Table 9 (6 days)): 92% | inhibition at 0.01 µg/mL ([1]; Human immunodeficiency virus 1, 144 h, read-out: inhibition of HIV-RNA production, 10 ng/mℓ, positive control of Table 10 (6 days)): 92% | inhibition at 0.01 µg/mL ([1]; Human immunodeficiency virus 1, read-out: inhibition of HIV-RNA production, 10 ng/mℓ, positive control of Table 7 (ten-fold dilution of standard viral titre)): 99% | inhibition at 0.01 µg/mL ([1]; Human immunodeficiency virus 1, read-out: inhibition of HIV-RNA, 10 ng/mℓ, positive control of Table 3 (viral titre lowered ten-fold)): 99% | transient mean increase of CD4⁺ cells (CD4⁺ cells): 25 cells/mm³ of blood

O=S(=O)(O)Oc1ccc(C#CC/C=C/c2ccc(OS(=O)(=O)O)c(O)c2)cc1O [Compound XVII]
% inhibition:p24 core protein ([1]; 50 μg/mℓ, 3 days incubation): 47% | % inhibition:p24 core protein ([1]; 50 μg/mℓ, 6 days incubation): 87% | % inhibition:p24 core protein ([1]; 100 μg/mℓ, 3 days incubation): 88% | inhibition at 50 µg/mL [1, 6]: 68% | inhibition at 100 µg/mL [1, 6]: 93% | inhibition at 50 µg/mL [1, 7]: 91% | inhibition at 100 µg/mL [1, 7]: 100% | viability ([2]; 50 μg/mℓ): 84% | viability ([2]; 100 μg/mℓ): 80% | cultures showing signs of toxicity due to the compound [3]: 5 out of 8 | Extent of Syncytium Formation ([4]; 50 µg/mℓ, viral dose 1/10, 4 days at 33°C (virus control c)): c (c = 50 - 75%) | Extent of Syncytium Formation ([4]; 50 µg/mℓ, viral dose 1/100, 4 days at 33°C (virus control b)): a (a = 0 - 25%) | Extent of Syncytium Formation ([4]; 50 µg/mℓ, viral dose Full, 4 days at 33°C (virus control d)): d (d = 75 - 100% of cells having three or more nuclei) | Extent of Syncytium Formation ([4]; 100 µg/mℓ, viral dose 1/10, 4 days at 33°C (virus control c)): a (a = 0 - 25%) | Extent of Syncytium Formation ([4]; 100 µg/mℓ, viral dose 1/100, 4 days at 33°C (virus control b)): Nil | Extent of Syncytium Formation ([4]; 100 µg/mℓ, viral dose Full, 4 days at 33°C (virus control d)): c (c = 50 - 75%) | Extent of Syncytium Formation ([4]; 200 µg/mℓ, viral dose 1/10, 4 days at 33°C (virus control c)): Nil | Extent of Syncytium Formation ([4]; 200 µg/mℓ, viral dose 1/100, 4 days at 33°C (virus control b)): Nil | Extent of Syncytium Formation ([4]; 200 µg/mℓ, viral dose Full, 4 days at 33°C (virus control d)): Nil | viability ([5]; 50 μg/mℓ): 96% | viability ([5]; 100 μg/mℓ): 94% | Extent of the Cytopathic Effect of Cytomegalo-Virus (cytomegalo-virus (CMV); 50 µg/mℓ, viral dose 1/10, 4 days of incubation (virus control b+)): b (b = 25 - 50%) | Extent of the Cytopathic Effect of Cytomegalo-Virus (cytomegalo-virus (CMV); 50 µg/mℓ, viral dose 1/50, 4 days of incubation (virus control a)): a (a = 0 - 25%) | Extent of the Cytopathic Effect of Cytomegalo-Virus (cytomegalo-virus (CMV); 50 µg/mℓ, viral dose Full, 4 days of incubation (virus control c)): bc | Extent of the Cytopathic Effect of Cytomegalo-Virus (cytomegalo-virus (CMV); 100 µg/mℓ, viral dose 1/10, 4 days of incubation (virus control b+)): ab | Extent of the Cytopathic Effect of Cytomegalo-Virus (cytomegalo-virus (CMV); 100 µg/mℓ, viral dose 1/50, 4 days of incubation (virus control a)): a- | Extent of the Cytopathic Effect of Cytomegalo-Virus (cytomegalo-virus (CMV); 100 µg/mℓ, viral dose Full, 4 days of incubation (virus control c)): bc | Extent of the Cytopathic Effect of Cytomegalo-Virus (cytomegalo-virus (CMV); 200 µg/mℓ, viral dose 1/10, 4 days of incubation (virus control b+)): Nil | Extent of the Cytopathic Effect of Cytomegalo-Virus (cytomegalo-virus (CMV); 200 µg/mℓ, viral dose 1/50, 4 days of incubation (virus control a)): Nil | Extent of the Cytopathic Effect of Cytomegalo-Virus (cytomegalo-virus (CMV); 200 µg/mℓ, viral dose Full, 4 days of incubation (virus control c)): Nil
